According to patent US7468369B2, “Sulfonyl pyrrolidines, method for producing the same and their use as drugs” (Sanofi-Aventis, priority 2005, dated 2008):
Where a name gives a salt, the structure may show the parent alone.

test system: human ABCA1 promoter; assay: ABCA1 promoter test (luciferase reporter in stably transfected THP1 cell line); format: cell-based; details: ABCA1 reporter cell line (THP1, PMA-differentiated), 24 h incubation, luciferase chemiluminescence; read-out: E50 ABCA1
Outline: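 PMA-differentiated THP1 macrophages stably carrying a 3.2 kb human ABCA1 promoter-luciferase construct, treated 24 h at 37° C with 11 concentrations ([…] to 330 pM, DMSO <0.1%). Luciferase read by luminescence after lysis; EC50 from dose-response plots.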

Work on `COc1cccc(S(=O)(=O)N2CC(C(=O)N3CCN(c4cc(C)ccc4C)CC3)C(c3ccsc3)C2)c1` (stereo not drawn) [Example 110, [4-(2,5-Dimethylphenyl)piperazin-1-yl]-[1-(3-methoxybenzenesulfonyl)-3,4-trans-4-thiophen-3-ylpyrrolidin-3-yl]methanone trifluoroacetate] yielded an EC50 of 914 nM.

same assay, conditions: Homo sapiens, THP-1; ABCA1 reporter cell line (THP1, PMA-differentiated), 24 h incubation, luciferase chemiluminescence; read-out: E50 ABCA1

First: Cc1ccc(C)c(N2CCN(C(=O)[C@@H]3CN(S(=O)(=O)c4c(C)noc4C)C[C@H]3Cc3ccccc3)CC2)c1 [Example 93, [3,4-trans-4-Benzyl-1-(3,5-dimethylisoxazole-4-sulfonyl)pyrrolidin-3-yl]-[4-(2,5-dimethylphenyl)piperazin-1-yl]methanone trifluoroacetate]
Second: Cc1ccc(C)c(N2CCN(C(=O)[C@H]3CN(S(=O)(=O)c4c(C)noc4C)C[C@H]3c3ccccc3)CC2)c1 [Example 118, [1-(3,5-Dimethylisoxazole-4-sulfonyl)-3,4-cis-4-phenylpyrrolidin-3-yl]-[4-(2,5-dimethylphenyl)piperazin-1-yl]methanone trifluoroacetate]
The EC50 of the first is 7.2-fold higher: 2480 nM for the first, 346 nM for the second. The second is the more potent here.

First: COc1cccc(S(=O)(=O)N2C[C@@H](Cc3ccccc3)[C@H](C(=O)N3CCN(c4cc(C)ccc4C)CC3)C2)c1 [Example 94, [3,4-trans-4-Benzyl-1-(3-methoxybenzenesulfonyl)pyrrolidin-3-yl]-[4-(2,5-dimethylphenyl)piperazin-1-yl]methanone trifluoroacetate]
Second: COc1cccc(S(=O)(=O)N2C[C@H](C(=O)N3CCN(c4cc(C)ccc4C)CC3)[C@H](c3ccccc3)C2)c1 [Example 119, [4-(2,5-Dimethylphenyl)piperazin-1-yl]-[1-(3-methoxybenzenesulfonyl)-3,4-cis-4-phenylpyrrolidin-3-yl]methanone trifluoroacetate]
The EC50 of the first is 17-fold higher: 2930 nM for the first, 177 nM for the second.

Going from `Cc1ccc(C)c(N2CCN(C(=O)[C@@H]3CN(S(=O)(=O)c4c(C)noc4C)C[C@H]3C(C)C)CC2)c1` [Example 95, [1-(3,5-Dimethyl isoxazole-4-sulfonyl)-3,4-trans-4-isopropylpyrrolidin-3-yl]-[4-(2,5-dimethylphenyl)piperazin-1-yl]methanone trifluoroacetate] to `Cc1ccc(C)c(N2CCN(C(=O)[C@@H]3CN(S(=O)(=O)c4c(C)noc4C)C[C@H]3c3ccsc3)CC2)c1` [Example 111, [1-(3,5-Dimethylisoxazole-4-sulfonyl)-3,4-trans-4-thiophen-3-ylpyrrolidin-3-yl]-[4-(2,5-dimethylphenyl)piperazin-1-yl]methanone trifluoroacetate], the EC50 falls from 4590 nM to 867 nM (5.3-fold).

First: COc1cccc(S(=O)(=O)N2C[C@@H](C(=O)N3CCN(c4cc(C)ccc4C)CC3)[C@H](C(C)C)C2)c1 [Example 96, [4-(2,5-Dimethylphenyl)piperazin-1-yl]-[3,4-trans-4-isopropyl-1-(3-methoxy-benzenesulfonyl)pyrrolidin-3-yl]methanone trifluoroacetate]
Second: COc1cccc(S(=O)(=O)N2C[C@@H](C(=O)N3CCN(c4cc(C)ccc4C)CC3)[C@H](c3c(C)noc3C)C2)c1 [Example 104, [3,4-trans-4-(3,5-Dimethylisoxazol-4-yl)-1-(3-methoxybenzenesulfonyl)-pyrrolidin-3-yl]-[4-(2,5-dimethylphenyl)piperazin-1-yl]methanone trifluoroacetate]
The EC50 of the first is 1.7-fold lower: 3600 nM for the first, 6270 nM for the second.

`Cc1ccc(C)c(N2CCN(C(=O)[C@@H]3CN(S(=O)(=O)c4c(C)noc4C)C[C@H]3c3ccccc3C)CC2)c1` [Example 98, [1-(3,5-Dimethylisoxazole-4-sulfonyl)-3,4-trans-4-o-tolylpyrrolidin-3-yl]-[4-(2,5-dimethylphenyl)piperazin-1-yl]methanone trifluoroacetate] and `Cc1ccc(C)c(N2CCN(C(=O)[C@@H]3CN(S(=O)(=O)c4c(C)noc4C)C[C@H]3c3c(C)cccc3C)CC2)c1` [Example 106, [1-(3,5-Dimethylisoxazole-4-sulfonyl)-3,4-trans-4-(2,6-dimethylphenyl)pyrrolidin-3-yl]-[4-(2,5-dimethylphenyl)piperazin-1-yl]methanone trifluoroacetate] are within 1.5-fold of each other in EC50: 401 nM for the first, 372 nM for the second.

`COc1cccc(S(=O)(=O)N2C[C@@H](C(=O)N3CCN(c4cc(C)ccc4C)CC3)[C@H](c3ccccc3C)C2)c1` [Example 99, [4-(2,5-Dimethylphenyl)piperazin-1-yl]-[1-(3-methoxybenzenesulfonyl)-3,4-trans-4-o-tolylpyrrolidin-3-yl]methanone trifluoroacetate] and `COc1cccc(S(=O)(=O)N2C[C@@H](C(=O)N3CCN(c4cc(C)ccc4C)CC3)[C@H](c3cccc(C)c3)C2)c1` [Example 102, [4-(2,5-Dimethylphenyl)piperazin-1-yl]-[1-(3-methoxybenzenesulfonyl)-3,4-trans-4-m-tolylpyrrolidin-3-yl]methanone trifluoroacetate] are within 1.5-fold of each other in EC50: 707 nM for the first, 1050 nM for the second.

First: Cc1ccc(C)c(N2CCN(C(=O)[C@@H]3CN(S(=O)(=O)c4cccnc4)C[C@H]3c3ccccc3C)CC2)c1 [Example 100, [4-(2,5-Dimethylphenyl)piperazin-1-yl]-[1-(pyridine-3-sulfonyl)-3,4-trans-4-o-tolylpyrrolidin-3-yl]methanone trifluoroacetate]
Second: Cc1ccc(C)c(N2CCN(C(=O)[C@H]3CN(S(=O)(=O)c4cccnc4)C[C@H]3c3ccccc3)CC2)c1 [Example 120, [4-(2,5-Dimethylphenyl)piperazin-1-yl]-[3,4-cis-4-phenyl-1-(pyridine-3-sulfonyl)pyrrolidin-3-yl]methanone trifluoroacetate]
The EC50 of the first is 3.4-fold higher: 1350 nM for the first, 395 nM for the second.

Compared with `Cc1cccc([C@@H]2CN(S(=O)(=O)c3c(C)noc3C)C[C@H]2C(=O)N2CCN(c3cc(C)ccc3C)CC2)c1` [Example 101, [1-(3,5-Dimethylisoxazole-4-sulfonyl)-3,4-trans-4-m-tolylpyrrolidin-3-yl]-[4-(2,5-dimethylphenyl)piperazin-1-yl]methanone trifluoroacetate], `Cc1ccc(C)c(N2CCN(C(=O)[C@@H]3CN(S(=O)(=O)c4c(C)noc4C)C[C@H]3c3cccnc3)CC2)c1` [Example 112, [1-(3,5-Dimethylisoxazole-4-sulfonyl)-3,4-trans-4-pyridin-3-ylpyrrolidin-3-yl]-[4-(2,5-dimethylphenyl)piperazin-1-yl]methanone trifluoroacetate] is 7.7-fold higher in EC50: 1850 nM for the first, 14300 nM for the second.

First: Cc1ccc(C)c(N2CCN(C(=O)[C@@H]3CN(S(=O)(=O)c4c(C)noc4C)C[C@H]3c3cccc4c3OCO4)CC2)c1 [Example 108, [3,4-trans-4-Benzo[1,3]dioxol-4-yl-1-(3,5-dimethylisoxazole-4-sulfonyl)-pyrrolidin-3-yl]-[4-(2,5-dimethylphenyl)piperazin-1-yl]methanone trifluoroacetate]
Second: Cc1ccc(C)c(N2CCN(C(=O)[C@@H]3CN(S(=O)(=O)c4c(C)noc4C)C[C@H]3c3ccoc3)CC2)c1 [Example 115, [1-(3,5-Dimethylisoxazole-4-sulfonyl)-3,4-trans-4-furan-3-ylpyrrolidin-3-yl]-[4-(2,5-dimethylphenyl)piperazin-1-yl]methanone trifluoroacetate]
The EC50 of the first is 4.5-fold lower: 585 nM for the first, 2640 nM for the second.

First: COc1cccc(S(=O)(=O)N2C[C@@H](C(=O)N3CCN(c4cc(C)ccc4C)CC3)[C@H](c3ccoc3)C2)c1 [Example 114, [4-(2,5-Dimethylphenyl)piperazin-1-yl]-[3,4-trans-4-furan-3-yl-1-(3-methoxybenzenesulfonyl)pyrrolidin-3-yl]methanone trifluoroacetate]
Second: Cc1ccc(C)c(N2CCN(C(=O)[C@@H]3CN(S(=O)(=O)c4cccnc4)C[C@H]3c3ccoc3)CC2)c1 [Example 116, [4-(2,5-Dimethylphenyl)piperazin-1-yl]-[3,4-trans-4-furan-3-yl-1-(pyridine-3-sulfonyl)pyrrolidin-3-yl]methanone trifluoroacetate]
The EC50 of the first is 5-fold lower: 2140 nM for the first, 10800 nM for the second.
